Experimental data as given in patent publication US6368831B1, “Treatment of hyperproliferative disorders” (Childrens Hospital Los Angeles, priority 1998, dated 2002).

Columns and labels:
[1] = test system: SMS-LHN neuroblastoma cell line; experiment: Ceramide assay, SMS-LHN; format: cell-based, human; conditions: SMS-LHN (drug sensitive); 10 μM fenretinide; 20% O2
Description: The ceramide assay is carried out as follows. 500,000 neuroblastoma cells/well are replicate plated in six-well tissue culture plates and allowed to attach overnight. Tritiated (3H)-palmitic acid (a lipid precursor) is added to 1 microcure/cc and fenretinide added to a final concentration of 10 uM. Control cells receive tritiated label but no drug. At the indicated time, cells are harvested from triplicate wells, washed, and lipids extracted with methanol, acetic acid, water, and chloroform. The organic layer (containing the tritium label incorporated into lipids) is isolated and dried down by a nitrogen stream. The lipid sample is dissolved in chloroform: methanol and 10% of each sample assayed to estimate the total tritium in the lipid sample. The lipids in sample fractions, together with unlabeled ceramide standards, are then separated by thin layer chromatography and the plates developed by iodine vapor. The region of the plate corresponding to the ceramide standard is scraped and the tritium of the co-migrating sample ceramide is measured. Total sample ceramide is then expressed as percent tritium label in ceramide versus tritium in total lipid. […]

[2] = test system: CHLA-90 neuroblastoma cells; experiment: DIMSCAN cytotoxicity assay, CHLA-90; format: cell-based; conditions: HPR 3-10 μM, BOC-d-fmk 40 μM, +24 hours, P=0.002 at 3 μM, P<0.001 at >3 μM
Description: Cytotoxicity is determined using the DIMSCAN assay system (R. Proffitt et al., Cytometry 24, 204-213 (1996); T. Frgala et al., Proc. AACR, 36, 303 (1995). The system employs digital imaging microscopy to quantify viable cells, which selectively accumulate fluorescein diacetate to become brightly fluorescent. The system is capable of measuring cytotoxicity over a 4-5 log dynamic range by quenching the residual fluorescence of dead and dying cells with eosin Y and quantifying the total fluorescence of viable cells using digital thresholding. Measured fluorescence is directly proportionate to the number of viable cells. A comparison of the total fluorescence of a drug-treated cell population to the fluorescence of a similar number of untreated cells yields a survival fraction. In brief, 5000 to 10,000 SK-N-RA neuroblastoma cells/well are replicate plated into 60 wells of a 96-well tissue culture plate in 0.1 cc media and allowed to attach overnight. Drug(s) are then added in 0.05 cc media to the final concentrations indicated. There are 12 wells treated per drug concentration. Twelve wells receive drug-vector only to the appropriate final concentration and serve as controls for the plate. Cells are incubated for 96-120 hours at 37° C. in 5% CO2. Fluorescein diacetate is then added to each well in 0.05 cc media to a final concentration of 8 microgram/cc. Cells are incubated for a further 15 minutes at 37° C. and 0.03 cc of 0.5% eosin Y is added to each well. Total fluorescence of viable cells is then measured by digital imaging microscopy.
Methods. Cells were added in 100 μL whole medium per well to 96-well microplates for DIMSCAN cytotoxicity assay as previously described. Cell lines used were the neuroblastoma cell lines CHLA-90 and LAN-6. At Time=0, either all-trans-retinoic acid (ATRA), 13-cis-retinoic acid (13-cis-RA) or a combination of retinoid plus safingol at a 3:1 molar ratio were added in 50 μL whole medium. Plates were incubated and assayed for cytotoxicity by DIMSCAN assay at +120 for CHLA-90 cells and+144 hours for LAN-6 cells.
Methods. To determine the manner in which 4-HPR or HPR+safingol induced cell death in neuroblastoma cells, morphological evidence of apoptosis and/or necrosis was assessed in CHLA-90 cells in the presence or absence of a specific as inhibitor of apoptosis, the neural cell-penetrant, pan-caspase enzyme inhibitor, BOC-d-fink (Enzyme Systems Products, Livermore, Calif.). […] CHLA-90 cells were plated in duplicate in whole medium in Lab Tek chamber slides (Nunc, Naperville, Ill.), allowed to attach for 24 hours, and then treated in the presence or absence of BOC-d-fink (40 μM) for one hour prior to treatment with HPR (10 μM). Control cells were treated with vehicle solvents of 0. 1% ethanol (4-HPR) and/or 0.2% DMSO (BOC-d-fink). Morphological features of apoptosis (DNA condensation and/or apoptotic bodies) were visualized in undetached cells at +24 or +48 hours using blue nuclear fluorescence induced by the supravital DNA stain Hoechst 33342 (10 μg/ml for 30 mins at 37° C.), while necrotic cells and advanced apoptotic cells were recognized by red fluorescent staining with propidium iodide (0.5 μM/ml). Red fluorescently-staining cells with condensed nuclear remnants were scored as apoptotic cells. For cells assayed at +48 hours, additional BOC-d-fink (40 μM) or appropriate control vehicle was added at +24 hours. Cells were observed using filters appropriate for each dye sequentially on an Olympus Vanox epifluorescence microscope. Mutiple random fields of cells (of ˜100-500 cells each) were counted and photographed for viable cells, apoptotic cells, and necrotic cells. To further examine cells treated with HPR, cytotoxicity assays were performed on CHLA-90 cells pretreated with or without 40 μM BOC-d-fmk for one hour prior to the addition of 4-HPR (3-10 μM) and assayed at +24 hours by DIMSCAN assay to assess the effect of caspase inhibition on viability. […]

[3] = test system: MCF7/GCS cells; experiment: DIMSCAN cytotoxicity assay, MCF7/GCS tet OFF vs tet ON; format: cell-based, human; conditions: 96 hours, P<0.005 at >6 μM HPR, safingol 0-4 μM
From the text: We have shown that HPR generates ceramide in neuroblastoma tumor cell lines in a dose- and time-depenent manner (B. Maurer et al., J. Natl. Cancer Inst. (1999)(in press)). Glucosylceramide (GC) is a nontoxic metabolite of ceramide. Ceramide is converted into glucosylceramide by the action of glucosylceramide synthase (GCS). Glucosylceramide synthase (GCS) has been transfected into human MCF7 breast cancer cells in a tetracycline-inducible expression construct in the MCF7/GCS cell line (Y. Liu et al., J. Biol. Chem. 274:1140-46 (1999)). […] We have exposed MCF7/GCS cells to HPR, safingol and HPR+safingol in the absence, and in the presence, of doxycycline.
Methods. MCF7/GCS cells were plated and incubated in RPMI medium with 10% fetal bovine serum and 200 microgram/ml Hygromycin B (tet OFF) for DIMSCAN cytotoxicity assays as previously described. To increase GCS expression, MCF7/GCS cells were also incubated in the above medium with 3 microgram/ml doxycycline (tet ON) for three days prior to replating them for DIMSCAN cytotoxicity assay. DIMSCAN assays with doxycycline-induced (tet ON) cells also included 3 microgram/ml doxycycline in the medium. Both “tet OFF” and “tet ON” MCF7/GCS cells were exposed to HPR, safingol and HPR+safingol (3:1 molar ratio) for 96 hours and assayed for survival fraction by DIMSCAN as previously described.

## CC1=C(/C=C/C(C)=C/C=C/C(C)=C/C(=O)Nc2ccc(O)cc2)C(C)(C)CCC1 [HPR, all-trans-N-(4-hydroxyphenyl)retinamide]
[1]
  ceramide generation: generate ceramide
[2]
  cytotoxicity in the presence of BOC-d-fmk: significant cytotoxicity
[3]
  change of cytotoxicity in tet ON (doxycycline, GCS induced) compared to tet OFF cells: significantly decreased
